Results reported in article PMC10041537, “Molecular origins of mutational spectra produced by the environmental carcinogen N-nitrosodimethylamine and SN1 chemotherapeutic agents” (NAR Cancer, 2023).

Tests used:
[1] = test system: C57BL/6J gptΔ mouse embryonic fibroblasts (MEFs); test: Duplex sequencing, high-resolution mutational spectra of MEFs treated with alkylating agents; assay type: cell-based; conditions: for predominant mutation type of mutational spectrum: doses generating no more than 50% growth inhibition; for cosine similarity of mutational spectra: with each other, with NDMA spectra from WT liver and lung, Mgmt-deficient liver, and COSMIC SBS11
Procedure: C57BL/6J gptΔ mouse embryonic fibroblasts (MEFs) were established and maintained in high glucose, GlutaMAX DMEM (Gibco) supplemented with 10% FBS (VWR Life Sciences), sodium pyruvate (1 mM, Gibco), penicillin (100 IU) and streptomycin (100 μg/ml) (Corning) as previously described ([40]). […] For growth-inhibition assays, 2.5 × 10^4 cells were seeded in 6-well plates and incubated overnight. Cells were treated with SN1 alkylating agents as follows. TMZ (Sigma-Aldrich): 50, 100 and 200 μM (stock solutions in DMSO (Sigma-Aldrich)) in FBS-free complete media for 24 h. STZ (Sigma-Aldrich): 500, 1000 and 2000 μM (stock solutions in 0.1 M citrate buffer, pH 4.5) in HBSS, pH 7.4 for 6 h. MNU (Sigma-Aldrich): 125, 250 and 500 μM (stock solutions in 0.1 M citrate buffer, pH 4.5) in HBSS, pH 7.4 for 1 h. After the treatments, cells were washed in PBS (Gibco) and cultured in complete media for another 48 h. Cell growth was analyzed by determining percentages of cell numbers from treatment and untreated control groups by Coulter counter. For gpt assays, 4 × 10^5 cells were seeded into 15 cm tissue culture dishes (4 dishes per group) and treated with TMZ, STZ and MNU, as described above, at 60–70% confluence. Viable cells were harvested and washed twice in PBS.
The gptΔ assay as described above was also performed on MEFs derived from the gptΔ mouse (see above) that were treated with the toxicants studied here. For the cell culture studies, genomic DNA from 2 × 10^6 cells per group was prepared using the MegaLong DNA Isolation Kit (G-Biosciences) according to the manufacturer's instructions.
To determine the identity of mutations and the sequence contexts in which they occur, we utilized a form of error-corrected sequencing called duplex sequencing (DS). Previously, we described how DS can be used directly on genomic samples derived from the gptΔ mouse to yield high-resolution mutational spectra in an unbiased (unselected) manner ([49]). Unlike the traditional gptΔ assay, DS evaluates the mutations throughout the entire 6382 bp transgenic region (which contains the gpt gene), without the need for a phenotypic selection. In the present work, 6.4 kb gpt-containing plasmids from gptΔ mouse livers and cell culture were isolated using a Miniprep Kit (Qiagen) following instructions of the manufacturer. Approximately 6 μg of plasmid DNA was diluted in 1× TE buffer-low EDTA, pH 8 (Thermo Scientific), transferred to a microTUBE AFA Fiber Pre-Slit Snap-Cap (Covaris) and sonicated using a Covaris E220 Focused-ultrasonicator. The following program was used to obtain 300–350 bp fragments: peak incident power = 140 W, duty factor = 10%, cycles per burst = 200, treatment time = 80 s, temperature = 4–7°C. DS libraries for gptΔ C57BL/6J mice and MEFs were prepared using the NEBNext Ultra II DNA Library Prep (E7103, NEB) or as described in Chawanthayatham et al. ([49]) and sequenced on a NextSeq500 or NovaSeq 6000 Illumina platform by using a 150 bp paired-end protocol (MIT BioMicro Center). DS libraries for the gptΔ mouse lungs and Mgmt^−/− mice were prepared using an input of 1 μg or 500 ng genomic DNA, respectively, using a TwinStrand Biosciences, Inc. Mouse Mutagenesis Kit according to the manufacturer's protocol. This kit uses probes that hybridize to 20 genomic regions, each 2.4 kb long. The genomic coordinates are provided in Supplementary Table S1. These probes were purposely selected to map in intronic and intergenic regions, to avoid selection bias. The libraries were sequenced on an Illumina NovaSeq 6000 DNA sequencer on an S4 flow cell using a 150 bp paired-end protocol (MIT BioMicro Center).
For each sample, the two fastq files generated by the Illumina sequencer were converted into an unaligned bam file, using Picard Tools. The resulting bam file was processed using UnifiedConsensusMaker.py (version 3.0) as available from the Kennedy Lab at University of Washington (https://github.com/Kennedy-Lab-UW/Duplex-Sequencing). […]

[2] = test system: human induced pluripotent stem cells; set-up: method as in PMID 30982602; conditions: cited from earlier work

| SMILES | sequence context of mutations [1] | predominant mutation type of mutational spectrum [1] | cosine similarity of mutational spectra [1] | dominant mutation type of mutational spectrum [2] |
| --- | --- | --- | --- | --- |
| CN(N=O)C(N)=O [MNU, N-methyl-N-nitrosourea] | 5’-PuGN-3’ | GC→AT mutations | > 0.9 | AT→GC mutations |
| CN(N=O)C(=O)NC1C(O)OC(CO)C(O)C1O (centres unmarked) [STZ, streptozotocin] | 5’-PuGN-3’ | GC→AT mutations | > 0.9 |  |
| Cn1nnc2c(C(N)=O)ncn2c1=O [TMZ, temozolomide] | 5’-PuGN-3’ | GC→AT mutations | > 0.9 | AT→GC mutations |
